Measurements: patent US5972976A, “Aminostilbazole derivative and medicine” (priority 1994, dated 1999)
Converted amounts (≈) assume the structure as drawn. Read-outs that look alike come from different tables or passages of the source.

Assays:
[1] = Acute toxicity, single oral administration; conditions: mouse, in vivo, mortality after 2 weeks, probit method
Procedure: Male 5-week-old CDF1 mice were used. After the compound of Example 3B or 34 was orally administered once, the mortality rate was investigated after 2 weeks and the LD50 value was calculated by the probit method. […] The high safety of the compound of the invention is obvious.

[2] = tested on: mouse monocytic leukemia P-388 cell line; test: In vivo anticancer activity against mouse monocytic leukemia P-388 cell line; set-up: species or system mouse (CDF1); conditions: oral, twice (following day and after 5 days)
Procedure: In vivo anticancer activity against mouse monocytic leukemia P-388 cell line
A suspension of tumor cells was transplanted intraperitoneally in CDF1 mice in a dose of 10^6 cells/animal. On the following dav and after 5 days, or twice, the test drug suspended in 0.5% methylcellulose solution was administered orally. The experiment was performed in 8-12 mice for each control group and 6 mice for each drug treatment group.
For evaluation, the median survival time in days was determined for each drug treatment group (T) and control group (C) and T/C (%) was calculated.

[3] = tested on: KB (human nasopharynx carcinoma); test: In vitro anticancer effect (MTT), KB cell line; type: cell-based; conditions: KB cells, 72 hours, read-out: IC50 (50% cell growth-inhibitory concentration)
Procedure: (§1) In Vitro anticancer effects on KB (human nasopharynx carcinoma), Colon 38 (mouse colon cancer), and WiDr (human colorectal cancer) cell lines
(§2) Each of KB, Colon 38, and WiDr cell lines were respectively cultured using 10% fetal calf serum-supplemented D-MEM medium (Nissui Pharmaceutical). Each monolayer of cells was exfoliated with a 50:50 (v/v) mixture of 0.25% trypsin and 0.02% ethylenediaminetetracetic acid and after inactivation of trypsin, the cells were collected by centrifuging at 800 rpm for 3 minutes and suspended in the same medium as above. Using a hemocytometer, the number of the cells in the suspension were counted. The suspension was diluted with the medium to 5×10^4 cells/ml and distributed to a 96-well flat-bottomed plate, 100 μl per well.
(§3) The test drug was first dissolved in dimethyl sulfoxide at a concentration of 2 mg/ml and diluted with the above medium to 20 μg/ml. Using this solution for the highest concentration, a doubling dilution series was prepared and 100 μl of each dilution was added to the above cell suspension.
(§4) The plate was then incubated under 5% CO2 -air at 37° C. for 72 hours. Then, a 5 mg/ml solution of MTT [3-(4,5-dimethylthiazol-2-yl)-2,5-diphenyltetrazolium bromide] was added to the plate, 30 μl per well and the reaction was carried out under 5% CO2 -air at 37° C. for 4 hours. After the reaction, the solution in each well was aspirated off and 100 μl/well of dimethyl sulfoxide was added. After 5 minutes of shaking, the absorbance at 540 nm was measured with a Multiscan (Titertek) and the 50% cell growth-inhibitory concentration (IC50) was calculated.

[4] = tested on: WiDr (human colorectal cancer); test: In vitro anticancer effect (MTT), WiDr cell line; type: cell-based; conditions: WiDr cells, 72 hours, read-out: IC50 (50% cell growth-inhibitory concentration)
Procedure: as §1, §2, §3, §4

[5] = tested on: Colon 38 (mouse colon cancer); test: In vitro anticancer effect (MTT), Colon 38 cell line; type: cell-based; conditions: Colon 38 cells, 72 hours, read-out: IC50 (50% cell growth-inhibitory concentration)
Procedure: as §1, §2, §3, §4

tubulin = conditions: J. Med. Chem. 1991, 34, 2579; cited from earlier work
microtubule protein = test: Microtubule polymerization-inhibitory activity; type: biochemical; conditions: porcine brain microtubule protein, 37° C., pH 6.8, 350 nm; read-out: 50% inhibitory concentration against microtubule protein polymerization
Procedure: Microtubule polymerization-inhibitory activity Microtubule polymerization-inhibitory activity
A microtubule protein (a mixed solution of microtubule protein and microtubule-bound protein) was purified from a crude porcine brain extract according to the method of Williams et al. [Method in Enzymology, 85, 36, 1982] to isolate and the microtubule polymerization inhibitory activity of the compound of the invention was studied. The microtubule protein solution was diluted to 4 mg/ml as purified microtubule protein with GTP (guanosine-5'-triphosphate)-added reaction buffer (pH 6.8) {100 mM MES [2-(N-morpholinoethanesulfonic acid], 0.5 mM MgCl2 -1 mM EGTA (ethylene glycol bis(β-aminoethyl ether)-N,N,N',N'-tetracetic acid), 1 mM GTP} under ice-cooling and after degassing in ice, the test drug was added. Using a spectrophotometer maintained at 37° C., the absorbance of the system at 350 nm was measured at 2-minute intervals for 30 minutes to construct a polymerization curve and the concentration corresponding to 50% inhibition of microtubule protein polymerization was calculated. As the test drug, the compound of Example 3A was used.

[6] = tested on: Colon-26 (mouse colon cancer) cells transplanted in mice; type: in vivo, mouse (BALB/c, male); conditions: oral, once daily for 8 days
Procedure: Anticancer activity against Colon-26 (mouse colon cancer) cells transplanted in mice
Using an injection syringe, Colon-26 cells cultured in vitro were transplanted subcutaneously in a dose of 5×10^5 /animal in the right thoracic region of BALB/c mice (5 weeks old, male). As in Test Example 3, the mice were divided into groups of 6 when the tumor volume had reached about 150 mm^3. Starting the following day, the test drug suspended in 0.5% methylcellulose solution was administered orally by gastric gavage once daily for 8 days. The tumor volume was measured at a predetermined interval by the same method as in Test Example 3 and the tumor growth inhibition rate in each drug treatment group relative to the control group was calculated. As the test compound, the compound of Example 3A was used.

[7] = tested on: WiDr tumor cells transplanted in nude mice; test: Growth inhibitory activity against WiDr tumor cells transplanted in nude mice; type: in vivo; conditions: oral; for Growth inhibition rate at day 16 after initiation of administration: once daily
From the text: Growth inhibitory activity against WiDr tumor cells transplanted in nude mice The tumor subcutaneously subcultured in nude mice (BALB/c nu/nu, male) aged 5-7 weeks were excised. After removal of the skin and connective tissue around the tumor, the tumor mass was split to remove the central necrotic tissue and, then, cut into cubes with a 2 mm side. One cube was loaded into a grafting needle and transplanted subcutaneously in the right thoracic region of the nude mouse. The major and minor diameters of the tumor were measured with calipers and the tumor volume was calculated by means of Equation 1. Starting when the volume had reached about 100 mm^3, the mice were divided into 6 individuals per group and the test drug suspended in 0.5% methylcellulose solution was administered orally by gastric gavage once daily.
Volume=1/2×major diameter×(minor diameter)^2Equation 1
The tumor volume was determined by the above method at predetermined intervals. From the tumor volume thus calculated, the growth rate was calculated by means of Equation 2. Then, using Equation 3, the growth inhibition rate in each drug treatment group relative to the control group was calculated.
Growth rate=tumor volume at day n/tumor volume at initiation of administration Equation 2
Growth inhibition rate (%)=(1-growth rate in drug treatment group/growth rate in control group)×100 Equation 3
As the test compound, the compound of Example 3A was used.

SMILES: COc1ccc(S(=O)(=O)Nc2ccccc2/C=C/c2ccncc2)cc1.Cl [Example 3B, (E)-4-[2-[2-[[(p-Methoxyphenyl)sulfonyl]amino]phenyl]ethenyl]pyridine Hydrochloride]
- LD50 at 336 h [1]: 510 mg/kg
- T/C (median survival time, treated/control) ([2]; 25 mg/kg): 116%
- T/C (median survival time, treated/control) ([2]; 50 mg/kg): 126%
- T/C (median survival time, treated/control) ([2]; 100 mg/kg): 168%
- T/C (median survival time, treated/control) ([2]; 200 mg/kg): 221%

SMILES: COc1ccc(S(=O)(=O)Nc2ccccc2/C=C/c2cc[n+]([O-])cc2)cc1 [Example 20, (E)-4-[2-[2-[[(p-Methoxyphenyl)sulfonyl]amino]phenyl]ethenyl]pyridine 1-oxide]
- T/C (median survival time, treated/control) ([2]; 25 mg/kg): 135%
- T/C (median survival time, treated/control) ([2]; 50 mg/kg): 115%
- T/C (median survival time, treated/control) ([2]; 100 mg/kg): 180%
- T/C (median survival time, treated/control) ([2]; 200 mg/kg): 195%

SMILES: COc1ccc(S(=O)(=O)N(C(C)=O)c2ccccc2/C=C/c2cc[n+]([O-])cc2)cc1 [Example 57, (E)-4-[2-[2-[N-Acetyl-N-[(p-methoxyphenyl)sulfonyl]amino]phenyl]ethenyl]pyridine 1-oxide]
- T/C (median survival time, treated/control) ([2]; 25 mg/kg): 115%
- T/C (median survival time, treated/control) ([2]; 50 mg/kg): 160%
- T/C (median survival time, treated/control) ([2]; 100 mg/kg): 215%
- T/C (median survival time, treated/control) ([2]; 200 mg/kg): 250%

SMILES: COc1ccc(S(=O)(=O)Nc2ccccc2/C=C\c2cccnc2)cc1 [Example 2 (cis), 3-[2-[2-[[(p-Methoxyphenyl)sulfonyl]amino]phenyl]ethenyl]pyridine]
- IC50 [3]: 4.86 mg/L (≈ 13.3 µM)
- IC50 [4]: 4.81 mg/L (≈ 13.1 µM)
- IC50 [5]: 6.48 mg/L (≈ 17.7 µM)

SMILES: COc1ccc(/C=C\c2cc(OC)c(OC)c(OC)c2)cc1 [(Z)-3,4,5-trimethoxy-4'-methoxystilbene]
- tubulin polymerization-inhibitory activity (tubulin): have tubulin polymerization-inhibitory activity

SMILES: COc1ccc(S(=O)(=O)Nc2ccccc2/C=C/c2ccccn2)cc1 [Example 4, (E)-2-[2-[2-[[(p-Methoxyphenyl)sulfonyl]amino]phenyl]ethenyl]pyridine]
- IC50 [3]: 0.12 mg/L (≈ 0.327 µM)
- IC50 [4]: 0.16 mg/L (≈ 0.437 µM)
- IC50 [5]: 0.16 mg/L (≈ 0.437 µM)

SMILES: COc1ccc(S(=O)(=O)N(CCO)c2ccccc2/C=C/c2ccncc2)cc1 [Example 34, (E)-4-[2-[2-[N-(2-Hydroxyethyl)-N-[(p-methoxyphenyl)sulfonyl]amino]phenyl]ethenyl]pyridine]
- LD50 at 336 h [1]: 754 mg/kg
- T/C (median survival time, treated/control) ([2]; 25 mg/kg): 105%
- T/C (median survival time, treated/control) ([2]; 50 mg/kg): 124%
- T/C (median survival time, treated/control) ([2]; 100 mg/kg): 167%
- T/C (median survival time, treated/control) ([2]; 200 mg/kg): 210%

SMILES: COc1ccc(S(=O)(=O)Nc2ncccc2/C=C/c2ccccc2)cc1 [Example 1, (E)-2-[[(p-Methoxyphenyl)sulfonyl]amino]-3-(2-phenyl-ethenyl)pyridine]
- IC50 [3]: 0.44 mg/L (≈ 1.2 µM)
- IC50 [4]: 0.45 mg/L (≈ 1.23 µM)
- IC50 [5]: 0.75 mg/L (≈ 2.05 µM)

SMILES: COc1ccc(S(=O)(=O)Nc2ccccc2/C=C/c2cccnc2)cc1 [Example 2 (trans), 3-[2-[2-[[(p-Methoxyphenyl)sulfonyl]amino]phenyl]ethenyl]pyridine]
- IC50 [3]: 0.1 mg/L (≈ 0.273 µM)
- IC50 [4]: 0.09 mg/L (≈ 0.246 µM)
- IC50 [5]: 0.15 mg/L (≈ 0.409 µM)

SMILES: COc1ccc(S(=O)(=O)N(CCO)c2ccccc2/C=C/c2cc[n+]([O-])cc2)cc1 [Example 49, (E)-4-[2-[2-[N-(2-Hydroxyethyl)-N-[(p-methoxyphenyl)sulfonyl]amino]phenyl]ethenyl]pyridine 1-oxide]
- T/C (median survival time, treated/control) ([2]; 100 mg/kg): 185%
- T/C (median survival time, treated/control) ([2]; 200 mg/kg): 220%

SMILES: COc1ccc(S(=O)(=O)Nc2ccccc2/C=C/c2ccncc2)cc1 [Example 3A, (E)-4-[2-[2-[[(p-Methoxyphenyl)sulfonyl]amino]phenyl]ethenyl]pyridine]
- IC50 [3]: 0.0026 mg/L (≈ 0.0071 µM)
- IC50 [4]: 0.0025 mg/L (≈ 0.00682 µM)
- IC50 (microtubule protein): 11.2 µM
- Growth inhibition rate at day 13 after initiation of administration ([6]; 25 mg/kg/day): 44.8%
- Growth inhibition rate at day 13 after initiation of administration ([6]; 50 mg/kg/day): 95.3%
- IC50 [5]: 0.0031 mg/L (≈ 0.00846 µM)
- Growth inhibition rate at day 16 after initiation of administration ([7]; 10 mg/kg/day): 16.4%
- Growth inhibition rate at day 16 after initiation of administration ([7]; 30 mg/kg/day): 57.0%
- death by the end of the administration period ([7]; 100 mg/kg, once daily for 14 days): no death occurred
- Growth inhibition rate at day 16 after initiation of administration ([7]; 100 mg/kg/day): 81.7%
